Assay results: US10328049B2, “Infant nutritional product with RRR alpha-tocopherol” (ABBOTT LABORATORIES, priority 2013, dated 2019)

Assays:
[1] = cited from earlier work; for Activity as alpha-TE: alpha-tocopherol equivalents (TE), table from Vitamin E in Health and Disease, 1993, p. 21
[2] = Brain analysis of infant brain (tocopherol content and correlations); assay type: in vivo, human; conditions: formula fed infant brain
Description: Cholesterol is a major component of myelin, and thus, is a marker for extent of CNS myelination. Glutamate is a neurotransmitter, which is reported to stimulate neuron outgrowth and branching. […] Accordingly, an excessively high level of dietary gamma-tocopherol may hinder the brain uptake of RRR alpha-tocopherol, and thus, may hinder CNS development.
Most commercial infant formulas are fortified with synthetic alpha-tocopherols. It has been reported that the plasma […] of the 2R isomers are about equal for animals fed a diet containing synthetic alpha-tocopherols. These findings indicate that RRR alpha-tocopherol is preferably absorbed into the brain or it is metabolized at a much slower rate than RSR, RRS and RSS tocopherols.

For `CC(=O)Oc1c(C)c(C)c2c(c1C)CCC(C)(CCC[C@H](C)CCC[C@H](C)CCCC(C)C)O2` (mixture of isomers) [Synthetic alpha-tocopherol acetate, alpha-tocopherol acetate], the “Activity as alpha-TE” value [1] is listed as 0.74 mg/mg compound.
In the case of `Cc1c(C)c2c(c(C)c1O)CC[C@@](C)(CCC[C@H](C)CCC[C@H](C)CCCC(C)C)O2` [RRR alpha-tocopherol], the “share of the alpha-tocopherol in brain that is RRR alpha-tocopherol” value [2] is listed as “over 60%”, the “Activity as alpha-TE” value [1] is listed as 1.0 mg/mg compound and the “assigned vitamin E activity” value ([1]; assigned reference activity) is listed as 1 mg alpha-tocopherol equivalent (TE) per milligram.
For `CC(C)=CCC/C(C)=C/CC/C(C)=C/CC[C@]1(C)CCc2c(C)c(O)c(C)c(C)c2O1` [RRR alpha-tocotrienol], the “Activity as alpha-TE” value [1] is listed as 0.3 mg/mg compound.
In the case of `Cc1cc(O)c(C)c2c1O[C@](C)(CCC[C@H](C)CCC[C@H](C)CCCC(C)C)CC2` [RRR beta-tocopherol], the “Activity as alpha-TE” value [1] is given as 0.5 mg/mg compound.
For `CC(C)=CCC/C(C)=C/CC/C(C)=C/CC[C@]1(C)CCc2c(C)c(O)cc(C)c2O1` [RRR beta-tocotrienol], the “Activity as alpha-TE” value [1] is given as 0.05 mg/mg compound.
In the case of `Cc1cc(O)cc2c1O[C@](C)(CCC[C@H](C)CCC[C@H](C)CCCC(C)C)CC2` [RRR delta-tocopherol], the “Activity as alpha-TE” value [1] is listed as 0.03 mg/mg compound.
For `Cc1c(O)cc2c(c1C)O[C@](C)(CCC[C@H](C)CCC[C@H](C)CCCC(C)C)CC2` [RRR gamma-tocopherol], the “Activity as alpha-TE” value [1] is given as 0.1 mg/mg compound.
